Reference: paper PMC12595434, “Development of retinoid nuclear receptor pathway antagonists through targeting aldehyde dehydrogenase 1A3” (iScience, 2025)
Like-named read-outs stand apart in the source and are kept apart here.

Columns and labels:
human ALDH1A2 = biological target: T1, human ALDH1A2 (Homo sapiens, UniProt O94788); experiment: Recombinant enzyme activity assay; assay type: biochemical; details: for IC50: recombinant activity assay (Table 1), read-out: IC50 molecular, human ALDH1A2
T1 construct: made in house; host or cells: BL21-DE3 E. coli
T1 sequence (O94788 1-518): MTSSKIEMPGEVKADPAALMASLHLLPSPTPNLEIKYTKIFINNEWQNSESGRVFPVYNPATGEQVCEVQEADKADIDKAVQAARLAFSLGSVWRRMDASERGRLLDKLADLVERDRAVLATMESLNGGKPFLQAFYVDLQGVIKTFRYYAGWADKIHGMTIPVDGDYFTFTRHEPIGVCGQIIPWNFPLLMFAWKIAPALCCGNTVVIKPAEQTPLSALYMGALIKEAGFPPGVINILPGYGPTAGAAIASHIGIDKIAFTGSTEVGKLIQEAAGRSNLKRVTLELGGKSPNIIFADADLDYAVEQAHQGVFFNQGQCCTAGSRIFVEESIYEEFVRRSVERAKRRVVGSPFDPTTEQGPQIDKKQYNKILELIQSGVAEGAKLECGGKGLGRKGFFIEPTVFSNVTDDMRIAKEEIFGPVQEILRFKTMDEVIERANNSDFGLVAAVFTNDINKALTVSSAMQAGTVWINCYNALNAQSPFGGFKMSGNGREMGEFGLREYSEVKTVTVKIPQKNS

human ALDH2 = biological target: T2, human ALDH2 (Homo sapiens, UniProt P05091); experiment: Recombinant enzyme activity assay; assay type: biochemical; details: dose titration
T2 construct: made in house; host or cells: BL21-DE3 E. coli
T2 sequence (P05091 18-517): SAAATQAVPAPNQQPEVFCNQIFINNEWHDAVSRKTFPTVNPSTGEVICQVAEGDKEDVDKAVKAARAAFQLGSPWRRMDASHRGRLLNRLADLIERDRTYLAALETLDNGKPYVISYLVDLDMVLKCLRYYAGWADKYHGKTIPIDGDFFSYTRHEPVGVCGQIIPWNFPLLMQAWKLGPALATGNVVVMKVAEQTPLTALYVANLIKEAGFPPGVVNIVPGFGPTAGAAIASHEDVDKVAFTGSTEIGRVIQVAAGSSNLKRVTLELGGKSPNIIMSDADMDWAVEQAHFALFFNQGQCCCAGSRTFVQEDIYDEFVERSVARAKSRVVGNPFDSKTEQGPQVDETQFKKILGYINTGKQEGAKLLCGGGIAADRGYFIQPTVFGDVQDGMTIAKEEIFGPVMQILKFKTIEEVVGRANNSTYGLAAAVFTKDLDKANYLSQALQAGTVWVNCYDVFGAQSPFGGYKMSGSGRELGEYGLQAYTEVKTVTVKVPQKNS

mouse ALDH1A2 = biological target: T3, mouse ALDH1A2 (Mus musculus, UniProt Q62148); experiment: Recombinant enzyme activity assay; assay type: biochemical; details: recombinant activity assay (Table 1); read-out: IC50 molecular, mouse ALDH1A2
T3 construct: made in house; host or cells: BL21-DE3 E. coli
T3 sequence (Q62148 whole entry): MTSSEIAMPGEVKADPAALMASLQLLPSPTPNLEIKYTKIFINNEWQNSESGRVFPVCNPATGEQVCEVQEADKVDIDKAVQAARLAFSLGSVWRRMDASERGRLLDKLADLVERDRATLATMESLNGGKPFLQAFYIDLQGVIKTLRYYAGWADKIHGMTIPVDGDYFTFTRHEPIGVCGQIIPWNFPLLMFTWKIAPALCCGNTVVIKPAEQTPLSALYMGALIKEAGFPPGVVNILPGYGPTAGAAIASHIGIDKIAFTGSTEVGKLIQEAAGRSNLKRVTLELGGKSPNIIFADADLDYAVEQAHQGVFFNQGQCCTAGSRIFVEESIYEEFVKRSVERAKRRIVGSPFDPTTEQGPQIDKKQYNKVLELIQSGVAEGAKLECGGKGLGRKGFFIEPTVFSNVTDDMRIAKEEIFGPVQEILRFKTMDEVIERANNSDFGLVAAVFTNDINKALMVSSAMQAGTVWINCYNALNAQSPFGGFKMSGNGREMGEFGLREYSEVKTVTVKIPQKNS

[1] = Microsomal stability (mouse); assay type: in vitro ADME; details: microsomes, read-out: Microsomal T1/2 (mouse)
CYP2C9 = CYP2C9 (Homo sapiens, UniProt P11712); experiment: CYP inhibition; assay type: in vitro ADME
Sequence of CYP2C9 (P11712 whole entry): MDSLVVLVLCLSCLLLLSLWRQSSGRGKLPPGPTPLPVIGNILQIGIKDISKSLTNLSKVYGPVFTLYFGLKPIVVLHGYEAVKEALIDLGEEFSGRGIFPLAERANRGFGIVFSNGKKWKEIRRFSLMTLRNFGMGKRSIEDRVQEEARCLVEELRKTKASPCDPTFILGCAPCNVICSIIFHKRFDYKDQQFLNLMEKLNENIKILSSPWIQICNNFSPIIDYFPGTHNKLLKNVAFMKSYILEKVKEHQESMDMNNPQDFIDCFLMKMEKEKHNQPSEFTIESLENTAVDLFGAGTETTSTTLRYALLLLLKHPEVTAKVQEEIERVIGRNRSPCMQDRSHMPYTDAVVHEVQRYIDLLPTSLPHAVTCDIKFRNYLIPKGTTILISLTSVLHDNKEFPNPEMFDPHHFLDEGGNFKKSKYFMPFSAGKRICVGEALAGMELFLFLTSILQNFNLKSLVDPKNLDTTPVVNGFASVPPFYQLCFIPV

ALDH1A3 = biological target: T4, ALDH1A3 (Homo sapiens, UniProt P47895); experiment: Recombinant enzyme activity assay; assay type: biochemical; set-up: made in house; host or cells: BL21-DE3 E. coli
T4 sequence (P47895 1-512): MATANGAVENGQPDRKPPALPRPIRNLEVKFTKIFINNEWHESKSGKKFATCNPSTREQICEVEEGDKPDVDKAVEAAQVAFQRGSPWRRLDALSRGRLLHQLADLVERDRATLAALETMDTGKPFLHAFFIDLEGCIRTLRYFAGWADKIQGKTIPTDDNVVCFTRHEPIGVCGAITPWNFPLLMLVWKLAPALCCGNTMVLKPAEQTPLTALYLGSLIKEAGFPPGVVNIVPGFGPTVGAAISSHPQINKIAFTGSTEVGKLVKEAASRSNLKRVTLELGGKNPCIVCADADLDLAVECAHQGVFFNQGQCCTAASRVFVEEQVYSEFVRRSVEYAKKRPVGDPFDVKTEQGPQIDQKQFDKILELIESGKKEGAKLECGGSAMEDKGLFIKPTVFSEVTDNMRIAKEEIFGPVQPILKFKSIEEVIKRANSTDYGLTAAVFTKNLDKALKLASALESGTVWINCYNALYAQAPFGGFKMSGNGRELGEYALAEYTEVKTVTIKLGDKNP

[2] = IV/PO pharmacokinetics in fasted male CD-1 mice
[3] = Cytotoxicity, 48 h tetrazolium proliferation assay
[4] = test system: human ALDH1A3 in MCF7-ALDH1A3 cells; experiment: STRA6 qPCR retinoid inhibition assay in MCF7-ALDH1A3 cells; details: for IC50: 24 h, read-out: cellular IC50 for ALDH1A3, STRA6 mRNA; for EC50: read-out: EC50 cellular, human ALDH1A3
[5] = 1 mg/kg IV and 10 mg/kg PO, fasted male CD1 mice

| inhibitory activity against ALDH1A2 (in words) (human ALDH1A2; dose titration, up to 10 μM) | IC50 (ALDH1A3; recombinant activity assay (Table 1), read-out: IC50 molecular, human ALDH1A3) | competition mode (ALDH1A3; varying substrate and cofactor concentrations) | bioavailability compared with MBE1 (in words) [2, 5] | half-life compared with MBE1 (in words) [2, 5] | SMILES | fold lower affinity for ALDH1A2 than for ALDH1A3 (human ALDH1A2; biochemical inhibition of each isoform) | IC50 (human ALDH1A2) | inhibitory activity against ALDH2 (in words) (human ALDH2) | IC50 (mouse ALDH1A2) | half-life [1] | inhibition at 10 µM (CYP2C9) | IC50 (ALDH1A3; dose titration, substrate competition assay, recombinant human ALDH1A3, 4-parameter equation, read-out: huALDH1A3 IC50) | confirmatory screening result (ALDH1A3; hits of the 494-compound screen) | Oral bioavailability ([2]; 1 mg/kg i.v. and 10 mg/kg PO, fasted male CD-1 mice) | half-life ([2]; male, CD-1, mouse, plasma, po, 10 mg/kg) | Cytotoxicity [3] | IC50 [4] | EC50 [4] |
| --- | --- | --- | --- | --- | --- | --- | --- | --- | --- | --- | --- | --- | --- | --- | --- | --- | --- | --- |
| – | – | – | – | – | CCc1cnccc1C(=O)Nc1cc2c(cc1F)NC(=O)CC2 [MBE1, 3-ethyl-N-(7-fluoro-2-oxo-3,4-dihydro-1H-quinolin-6-yl)pyridine-4-carboxamide] | 4 fold | 3330 nM | no inhibition | 3330 nM | 0.727 h | 13.9% | 148 nM | true positives | 88.3% | 1.37 h | >100 µM | 3.67 nM | 3.67 nM |
| minimal inhibition | 83 nM | noncompetitive inhibitor | reduced bioavailability | improved half-life | CCc1ccccc1C(=O)Nc1cc2c(cc1F)NC(=O)CC2 [MBE1.5, 2-ethyl-N-(7-fluoro-2-oxo-3,4-dihydro-1H-quinolin-6-yl)benzamide] | – | 5000 nM | no inhibition | 4000 nM | 1.87 h | 5.6% | – | – | – | – | >100 µM | < 1 nM | 0.53 nM |
